Columns and labels:
[1] = target: Recombinant human CSF1R kinase (Homo sapiens (Human), UniProt P07333); test: Measurement of CSF1R kinase activity at molecular level (Z-LYTE); format: biochemical; details: Z-LYTE Tyr 1 peptide
Experimental: Invitrogen, PV3227; • Development reagent B: Invitrogen, PV3295; • Development buffer: Invitrogen. P3127; • Stopping solution: Invitrogen, P3094; • Recombinant human CSF1R kinase: Invitrogen, P[…]; • 384 well plate, black: Corning. 3575; • Envision: Perkin Elmer. 2. […] The test compound was diluted in gradient to 4-fold the reaction concentration and the concentration of DMSO was kept at 8%. […] The mixture was mixed gently with a pipette. • 4) A phosphorylated peptide substrate solution (PP solution): 0.4 μL of Z-LYTETM Tyr1 phosphorylated peptide substrate was added to 99.6 μl of 1.33× kinase buffer. • 5) ATP solution: 10 mM of ATP was diluted to 760 μM with 1.33× kinase buffer to prepare ATP solution. • 6) Development solution: Development reagent B was diluted with Development buffer at a ratio of 1:200. 3. […] 2.5 μL of 4× test compound was added to each reaction well of the 384 plate, and the corresponding volume of 8% DMSO was added to the control well. The plate was placed on ice. […] After adding the reaction components, the 384-well plate was sealed and incubated at 25-30° C. for 1 h in dark. 2) Development Reaction 5 μL of Development solution was added to each well, sealed and incubated at 25-30° C. for another 1 h in dark. 3) Reaction Stopping and Plate Reading 5 μL of stopping solution was added to each well. The Coumarin value (excitation at 400 nm, emission at 445 nm) and Fluorescein value (excitation at 400 nm, emission at 520 nm) were measured, respectively. 4. […] Coumarin emission read-out (445 nm)/Fluorescein emission read-out (520 nm); • C3 445 nm: 100% phosphorylated Coumarin emission read-out; • C3 520 nm: 100% phosphorylated Fluorescein emission read-out; • C1 445 nm: 0% phosphorylated Coumarin emission read-out; • C1 520 nm: 0% phosphorylated Fluorescein emission read-out. […] 5. IC50 values: calculated by using software XL-FitTM (version 5.3) supplied by ID Business Solutions (Guildford, UK), which is an additional software to Microsoft Excel.

[2] = target: CSF1R phosphorylation in THP-1 cells (Homo sapiens (Human), UniProt P07333); test: Detection of CSF1R phosphorylation activity at cell level (p-CSF1R ELISA, M-CSF stimulated THP-1 cells); format: cell-based; details: THP-1 cells, M-CSF stimulation, p-CSF1R ELISA; read-out: IC50
Chain of CSF1R phosphorylation in THP-1 cells (P07333 20-972): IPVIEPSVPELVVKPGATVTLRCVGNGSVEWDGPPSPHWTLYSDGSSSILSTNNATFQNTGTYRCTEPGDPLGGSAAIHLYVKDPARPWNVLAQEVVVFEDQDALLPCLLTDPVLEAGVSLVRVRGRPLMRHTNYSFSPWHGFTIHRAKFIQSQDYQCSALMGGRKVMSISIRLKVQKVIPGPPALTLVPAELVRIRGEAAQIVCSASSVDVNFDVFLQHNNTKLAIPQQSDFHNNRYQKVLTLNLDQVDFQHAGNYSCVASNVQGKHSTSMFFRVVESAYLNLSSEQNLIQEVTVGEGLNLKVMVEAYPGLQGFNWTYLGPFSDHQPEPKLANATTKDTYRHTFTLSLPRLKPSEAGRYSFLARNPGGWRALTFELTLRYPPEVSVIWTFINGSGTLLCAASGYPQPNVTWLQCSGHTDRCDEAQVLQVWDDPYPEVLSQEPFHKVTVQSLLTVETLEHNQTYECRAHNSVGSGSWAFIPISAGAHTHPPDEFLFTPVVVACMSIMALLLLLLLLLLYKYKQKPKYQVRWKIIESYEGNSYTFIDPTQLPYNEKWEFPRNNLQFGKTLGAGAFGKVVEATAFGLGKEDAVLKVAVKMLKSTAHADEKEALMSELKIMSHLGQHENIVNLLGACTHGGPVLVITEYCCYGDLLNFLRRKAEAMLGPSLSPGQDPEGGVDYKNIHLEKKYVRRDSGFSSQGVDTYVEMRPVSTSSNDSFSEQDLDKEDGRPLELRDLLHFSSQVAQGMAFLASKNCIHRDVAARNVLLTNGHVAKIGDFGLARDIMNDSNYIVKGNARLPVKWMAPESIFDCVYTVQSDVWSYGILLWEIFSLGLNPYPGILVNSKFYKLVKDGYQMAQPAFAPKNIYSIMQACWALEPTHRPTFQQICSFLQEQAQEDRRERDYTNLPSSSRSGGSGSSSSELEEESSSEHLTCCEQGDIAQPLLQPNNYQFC
Experimental: THP-1 (ATCC), human acute monocytic leukemia cells.
3. Treatment of cells and preparation of lysis buffer
5 μL. of the diluted compound was added to the 50 μL cell culture system, the culture was cultured in a 5% CO2, 37° C. cell incubator for 60 min, 300 ng/mL of M-CSF was added to the cells, and the mixture was stimulated in the 37° C. cell incubator for 1 min, added 50 μL of cell lysis buffer, and stored in a refrigerator at −80° C.
100 μL/well of the p-CSF1R capture antibody diluted to 0.8 μg/mL with PBS was added to the ELISA plate, and the plate was coated on a shaker at room temperature overnight. The culture was washed with PBST, and then added blocking solution and incubated at room temperature for 2 h. The culture was washed with PBST, added 90 μL of cell lysis buffer, and incubated on a shaker at 25° C. for 2 h. The plate was washed with PBST three times, added 100 μL of anti-p-tyrosine-HRP detection antibody diluted with 0.1% PBS-BSA diluent, and incubated on a shaker at 25° C. for 2 h. The plate was washed with PBST washing liquid, added 100 μL of chromogenic substrate and incubated at room temperature for 10-20 min. The reaction was stopped by adding 50 μL of 2N H2SO4. The optical density signal (450/570 nm) of each well was detected in Labsystems Multiskan K3 or Envision.
wherein • Drug-treated well read-out: indicating the optical density signal of a cell well with the test compound treatment. • Background read-out: indicating the optical density signal of a well without cells but with cell lysis buffer. • Cell well read-out: indicating the optical density signal of a cell well not treated with the compound.
6. Calculation of IC50: obtained by using XL-Fit 5.3 software, […]

Chain of Recombinant human CSF1R kinase (P07333 20-972): as above

Row | Structure (SMILES) | IC50 [1] | IC50 [2]
1 | COc1ccc(COc2ncc(Oc3ccc4ncc(N5CCOCC5)c(=O)n4c3)cc2OC)cc1 [Compound 31] | 6 nM | 10 nM
2 | COc1ccc(COc2ncc(Oc3ccc4ncc(N)c(=O)n4c3)cc2OC)cc1 [Compound 32] | 3 nM | 4 nM
3 | COc1cc(Oc2ccc3ncc(N)c(=O)n3c2)cnc1OCc1ccc(C)cc1 [Compound 35] | 6 nM | 12 nM
4 | COc1cc(Oc2ccc3ncc(C4CC4)c(=O)n3c2)cnc1OCc1ccc(C)cc1 [Compound 36] | 21 nM | 56 nM
5 | COc1ccc(CCOc2ncc(Oc3ccc4ncc(C)c(=O)n4c3)cc2OC)cc1 [Compound 37] | 33 nM | 140 nM
6 | COc1ccccc1CCOc1ncc(Oc2ccc3ncc(C)c(=O)n3c2)cc1OC [Compound 38] | 24 nM | 381 nM
7 | COc1cccc(CCOc2ncc(Oc3ccc4ncc(C)c(=O)n4c3)cc2OC)c1 [Compound 39] | 15 nM | 300 nM
8 | COc1cc(Oc2ccc3ncc(C)c(=O)n3c2)cnc1OCCc1ccccc1 [Compound 40] | 33 nM | 190 nM
9 | Cc1cnc2ccc(Oc3cnc(OCc4ccc(Cl)cc4)nc3)cn2c1=O [Compound 41] | 23 nM | 551 nM
10 | Cc1cnc2ccc(Oc3cnc(OCc4ccc(C5CC5)cc4)nc3)cn2c1=O [Compound 42] | 13 nM | 78 nM
11 | COc1cc(Oc2ccc3ncc(C)c(=O)n3c2)cnc1OCc1ccccc1 [Compound 43] | 4 nM | 54 nM
12 | COc1cc(Oc2ccc3ncc(C)c(=O)n3c2)cnc1OCc1ccc(C)cc1 [Compound 44] | 4 nM | 19 nM
13 | Cc1cnc2ccc(Oc3cnc4c(c3)OCC(c3ccc(C5CC5)cc3)O4)cn2c1=O (stereo not shown) [Compound 45, 7-((3-(4-cyclopropylphenyl)-2,3-dihydro-[1,4]dioxino[2,3-b]pyrin-7-yl)oxy)-3-methyl-4H-pyrido[1,2-a]pyrimidin-4-one] | 36 nM | 61 nM
14 | COc1cc(Cc2ccnc(-c3cnn(C)c3)c2)cnc1OCc1ccc(C2CC2)cc1 [Compound 46, 2-((4-cyclopropylbenzyl)oxy)-3-methoxy-5-((2-(1-methyl-1H-pyrazol-4-yl)pyridin-4-yl)methyl)pyridine] | 28 nM | 5 nM
15 | COc1ccc(COc2ncc(Cc3ccc4ncc(C)c(=O)n4c3)cc2OC)cc1 [Compound 47, 7-((5-methoxy-6-((4-methoxybenzyl)oxy)pyridin-3-yl)methyl)-3-methyl-4H-pyrido[1,2-a]pyrimidin-4-one] | 13 nM | 12 nM
16 | OCCn1cc(-c2cc(Oc3cnc4c(c3)OCC(c3ccc(C5CC5)cc3)O4)ccn2)cn1 (stereo not shown) [Compound 52, 2-(4-(4-((3-(4-cyclopropylphenyl)-2,3-dihydro-[1,4]dioxino[2,3-b]pyridin-7-yl)oxy)pyridin-2-yl)-1H-pyrazol-1-yl)ethan-1-ol] | 19 nM | 34 nM
17 | Cc1cnc2ccc(Oc3cnc4c(c3)OC[C@@H](c3ccc(C5CC5)cc3)O4)cn2c1=O [Compound 57] | 15 nM | 16 nM
18 | Cc1cnc2ccc(Oc3cnc4c(c3)OC[C@H](c3ccc(C5CC5)cc3)O4)cn2c1=O [Compound 58] | 12 nM | 26 nM
19 | O=c1ccnc2ccc(Oc3cnc4c(c3)OC[C@@H](c3ccc(C5CC5)nc3)O4)cn12 [Compound 59] | 5 nM | 50 nM
20 | O=c1ccnc2ccc(Oc3cnc4c(c3)OC[C@H](c3ccc(C5CC5)nc3)O4)cn12 [Compound 60] | 6 nM | 52 nM
21 | Cc1cnc2ccc(Oc3cnc4c(c3)OC[C@@H](c3ccc(C5CC5)nc3)O4)cn2c1=O [Compound 61] | 3 nM | 29 nM
22 | Cc1cnc2ccc(Oc3cnc4c(c3)OC[C@H](c3ccc(C5CC5)nc3)O4)cn2c1=O [Compound 62] | 4 nM | 47 nM

Row | Structure (SMILES) | IC50 [1] | IC50 [2]
23 | COc1ccc([C@@H]2COc3cc(Oc4ccc5nccc(=O)n5c4)cnc3O2)cc1 [Compound 63] | 5 nM | 18 nM
24 | COc1ccc([C@H]2COc3cc(Oc4ccc5nccc(=O)n5c4)cnc3O2)cc1 [Compound 64] | 10 nM | 42 nM
25 | COc1ccc([C@@H]2COc3cc(Oc4ccc5ncc(C)c(=O)n5c4)cnc3O2)cc1 [Compound 65] | 5 nM | 10 nM
26 | COc1ccc([C@H]2COc3cc(Oc4ccc5ncc(C)c(=O)n5c4)cnc3O2)cc1 [Compound 66] | 10 nM | 56 nM
27 | COc1ccc([C@@H]2COc3cc(Oc4ccnc(-c5cnn(C)c5)c4)cnc3O2)cc1 [Compound 67] | 5 nM | 16 nM
28 | COc1ccc([C@H]2COc3cc(Oc4ccnc(-c5cnn(C)c5)c4)cnc3O2)cc1 [Compound 68] | 6 nM | 21 nM
29 | COc1ccc([C@@H]2COc3cc(Oc4ccnc(-c5cnn(C)c5)c4)cnc3O2)cn1 [Compound 69] | 3 nM | 17 nM
30 | COc1ccc([C@H]2COc3cc(Oc4ccnc(-c5cnn(C)c5)c4)cnc3O2)cn1 [Compound 70] | 8 nM | 15 nM
31 | O=c1ccnc2ccc(Oc3cnc4c(c3)OC[C@H](c3ccc(C5CC5)cn3)O4)cn12 [Compound 71] | 30 nM | 114 nM
32 | O=c1ccnc2ccc(Oc3cnc4c(c3)OC[C@@H](c3ccc(C5CC5)cn3)O4)cn12 [Compound 72] | 14 nM | 32 nM
33 | Cn1cc(-c2cc(Oc3cnc4c(c3)OC[C@H](c3ccc(C5CC5)cn3)O4)ccn2)cn1 [Compound 73] | 6 nM | 17 nM
34 | Cn1cc(-c2cc(Oc3cnc4c(c3)OC[C@@H](c3ccc(C5CC5)cn3)O4)ccn2)cn1 [Compound 74] | 5 nM | 9 nM
35 | Cc1cnc2ccc(Oc3cnc4c(c3)OC[C@H](c3ccc(C5CC5)cn3)O4)cn2c1=O [Compound 75] | 15 nM | 117 nM
36 | Cc1cnc2ccc(Oc3cnc4c(c3)OC[C@@H](c3ccc(C5CC5)cn3)O4)cn2c1=O [Compound 76] | 8 nM | 18 nM
37 | COc1ccc([C@@H]2COc3cc(Oc4ccc5nccc(=O)n5c4)cnc3O2)nc1 [Compound 78] | 26 nM | 64 nM
38 | COc1ccc([C@H]2COc3cc(Oc4ccc5ncc(C)c(=O)n5c4)cnc3O2)nc1 [Compound 79] | 30 nM | 182 nM
39 | COc1ccc([C@@H]2COc3cc(Oc4ccc5ncc(C)c(=O)n5c4)cnc3O2)nc1 [Compound 80] | 13 nM | 22 nM
40 | COc1ccc([C@H]2COc3cc(Oc4ccnc(-c5cnn(C)c5)c4)cnc3O2)nc1 [Compound 81] | 10 nM | 32 nM
41 | COc1ccc([C@@H]2COc3cc(Oc4ccnc(-c5cnn(C)c5)c4)cnc3O2)nc1 [Compound 82] | 11 nM | 13 nM
42 | COc1ccc([C@H]2COc3cc(Oc4ccc5nccc(=O)n5c4)cnc3O2)cn1 [Compound 83, (S)-7-((3-(6-methoxypyridin-3-yl)-2,3-dihydro-[1,4]dioxino[2,3-b]pyridin-7-yl)oxy)-4H-pyrido[1,2-a]pyrimidin-4-one] | 7 nM | 138 nM
43 | COc1ccc([C@H]2COc3cc(Oc4ccc5ncc(C)c(=O)n5c4)cnc3O2)cn1 [Compound 84] | 8 nM | 84 nM
44 | COc1ccc([C@@H]2COc3cc(Oc4ccc5nccc(=O)n5c4)cnc3O2)cn1 [Compound 85] | 17 nM | 154 nM
